Data set [1] addresses T1, farnesoid X receptor (FXR) (Homo sapiens, UniProt Q96RI1).
T1 sequence (Q96RI1 1-486): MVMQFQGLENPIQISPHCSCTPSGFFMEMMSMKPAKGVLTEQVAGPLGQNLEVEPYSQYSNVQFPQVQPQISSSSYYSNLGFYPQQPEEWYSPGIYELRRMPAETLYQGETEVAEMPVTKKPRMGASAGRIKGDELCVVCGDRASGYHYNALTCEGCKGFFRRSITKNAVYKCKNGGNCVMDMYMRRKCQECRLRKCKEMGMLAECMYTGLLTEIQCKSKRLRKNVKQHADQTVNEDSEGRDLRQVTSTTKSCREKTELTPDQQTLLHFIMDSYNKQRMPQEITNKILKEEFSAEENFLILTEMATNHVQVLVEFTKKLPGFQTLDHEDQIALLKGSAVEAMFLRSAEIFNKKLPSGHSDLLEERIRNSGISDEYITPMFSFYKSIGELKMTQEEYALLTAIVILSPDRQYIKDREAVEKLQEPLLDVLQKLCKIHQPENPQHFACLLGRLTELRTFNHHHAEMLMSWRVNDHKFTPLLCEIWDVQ
The settings on record: in vitro / on FXR; cited from earlier work.

Data set [2] can be described thus: Example 10: clinical pharmacology / pharmacokinetics of OCA. Type of data set: in vivo, human. The settings on record: for systemic exposure versus dose: 5, 10, and 25 mg once daily for 14 days; for metabolite-to-parent ratio: after daily administration of obeticholic acid; for median time (Tmax) of peak plasma concentrations: glyco-OCA and tauro-OCA conjugates, multiple oral doses of OCA 10 mg once daily. As for the experimental part: This example describes clinical pharmacology and dosing of obeticholic acid (OCA—including obeticholic acid compositions described herein). […] OCA can be supplied as an oral tablet containing obeticholic acid in a formulation as described herein.
Median Tmax for glyco-OCA and tauro-OCA is 10 hours.
Following an oral administration of 25 mg [^14C]-OCA, about 87% of the dose is excreted in feces through biliary secretion. Less than 3% of the dose is excreted in the urine with no detection of OCA.

Data set [3] is described as follows: Physiologic pharmacokinetic model of OCA (population PK fit and simulations). Also noted: species or system human. Particulars: normal hepatic function, model estimate. The protocol:
Plasma levels of OCA and its conjugates were measured in healthy subjects and cirrhotic patients with varying degrees of hepatic impairment. A physiologic pharmacokinetic model for OCA was developed to quantitatively describe the absorption, distribution, metabolism, and excretion of OCA in patients with and without hepatic impairment. The model was based on a published multi-compartment PK model for CDCA, and consisted of systemic, hepatobiliary, and intestinal systems. The model was used to simulate the pathophysiological abnormalities caused by cirrhosis including decreased hepatic uptake, portal-systemic shunting, decreased liver volume, and differences in amino acid conjugation.
This examples describes development of a physiologic PK model to quantitatively describe the absorption, distribution, metabolism, and excretion of OCA. In addition, the model was used to define the effects of hepatic impairment to predict the systemic and liver exposure to OCA in subjects with various degrees of liver impairment relative to healthy subjects with normal liver function. The model was developed based on 3 studies in healthy volunteers and 2 studies in patients with varying degrees of hepatic impairment […].
Data from was used to develop the model in healthy subjects (n=160) and then adjust for hepatic impairment (n=32) using the data from the above Examples. After development, the model was validated with data sourced from healthy subjects and cirrhotic patients.
The data used in model development included subject identifiers, time of dosing and sample collection, plasma drug concentrations (OCA, glyco-OCA, and tauro-OCA), dose amount, disease status (e.g., Child-Pugh score), and meal consumption information. Study participants received standardized meals at specified times during inpatient observation. Gallbladder contraction was assumed to last 90 minutes after the start of a meal. Drug concentrations below the limit of quantification (BLQ) were imputed to half of the lower limit of quantification (LLOQ). Observed and BLQ concentrations of OCA, glyco-OCA, and tauro-OCA associated with samples drawn prior to the first dose were excluded from the analyses.
A number of structural modifications were made to the base CDCA model in order to adapt it for use with OCA. For simplification, a single space was used to represent the gut (small and large intestines). Since OCA is an exogenous molecule, it was assumed that there was no endogenous synthesis and an absorption compartment with a first-order transfer coefficient (Ka) was included to represent the administration and absorption kinetics of an oral OCA dose. Based on steric hindrance by the 6-ethyl group of OCA, no bacterial 7-alpha dehydroxylation biotransformation activity (i.e., CDCA to lithocholic acid) was included in the model. Compartment volumes in the model were fixed to physiological values from the base CDCA model. The OCA model used the physiological flow values for blood, bile and gastrointestinal transit from the original physiologic PK model for CDCA, with the exception of flows from bile duct to gallbladder and from bile duct to gut. The physiological values from the base model led to poor predictions and may not be applicable due to the simplification of the enteral system into a unified gut compartment. The biotransformation and transport rates in the model, being dependent on chemical entity structure, were estimated by fitting the model to the plasma concentration time profiles of OCA, glyco-OCA, and tauro-OCA.
The PK model was first developed using the OCA, glyco-OCA, and tauro-OCA plasma concentration time profiles from healthy volunteers with normal hepatic function. Model parameter estimates related to healthy physiology were then held constant while the PK model was further developed using OCA, glyco-OCA, and tauro-OCA plasma concentration time profiles from patients with hepatic impairment (Child-Pugh scores A, B, and C). […]

For data set [4] the following is noted: normal hepatic function, Fixed; cited from earlier work.

As to `CCC1C(O)C2C3CCC(C(C)CCC(=O)O)C3(C)CCC2C2(C)CCC(OC3OC(C(=O)O)C(O)C(O)C3O)CC12` (stereo not shown) [3-glucuronide], in data set [1], the “pharmacological activity relative to OCA (parent drug)” value is listed as “minimal pharmacologic activity”.
Take `CC[C@H]1[C@@H](O)[C@@H]2[C@H](CC[C@]3(C)[C@@H]([C@H](C)CCC(=O)NCC(=O)O)CC[C@@H]23)[C@@]2(C)CC[C@@H](O)C[C@@H]12` [glyco-OCA]: in data set [2], the “systemic exposure versus dose” value is reported as “increase more than proportionally with dose”, the metabolite-to-parent ratio is given as 13.8 and the “median time (Tmax) of peak plasma concentrations” value amounted to 10 h. Moreover, in data set [3], the “b38: Glyco-OCA rate of deconjugation to OCA” value is 0.0431 h⁻¹, the “t9: Glyco-OCA transport rate from sinusoidal space to liver” value was 1210 h⁻¹, the “t19: Glyco-OCA transport rate from liver to bile duct” value is 7.44 h⁻¹ and the “t33: Glyco-OCA rate of absorption from gut to portal space” value is 0.904 h⁻¹. For the same molecule, the “t12: Glyco-OCA and tauro-OCA transport rate from liver to sinusoidal space” value in data set [4] is 1.62 h⁻¹. For the same molecule, the “pharmacological activity relative to OCA (parent drug)” value in data set [1] is recorded as “nearly equipotent”.
Regarding `CC[C@H]1[C@@H](O)[C@@H]2[C@H](CC[C@]3(C)[C@@H]([C@H](C)CCC(=O)NCCS(=O)(=O)O)CC[C@@H]23)[C@@]2(C)CC[C@@H](O)C[C@@H]12` [tauro-OCA], in data set [2], the “systemic exposure versus dose” value is on record as “increase more than proportionally with dose”, the metabolite-to-parent ratio amounted to 12.3 and the “median time (Tmax) of peak plasma concentrations” value amounted to 10 h. Further, in data set [3], the “b37: Tauro-OCA rate of deconjugation to OCA” value was 0.0200 h⁻¹, the “t11: Tauro-OCA transport rate from sinusoidal space to liver” value was 1615 h⁻¹, the “t21: Tauro-OCA transport rate from liver to bile duct” value was 9.28 h⁻¹ and the “t35: Tauro-OCA rate of absorption from gut to portal space” value was 1.62 h⁻¹. Moreover, in data set [4], the “t12: Glyco-OCA and tauro-OCA transport rate from liver to sinusoidal space” value was 1.62 h⁻¹. Besides, the “pharmacological activity relative to OCA (parent drug)” value in data set [1] is “nearly equipotent”.
